The record followed here is patent publication US6642266B2, “EP4 receptor selective agonists in the treatment of osteoporosis” (Pfizer Inc., priority 1999, dated 2003).

Molecules are shown by their SMILES. Bounds are passed on as bounds.

The target in data set [1] is T1, EP3 receptor (Homo sapiens, UniProt P43115).
T1 construct: expressed in transfected cells
T1 sequence (P43115 1-390): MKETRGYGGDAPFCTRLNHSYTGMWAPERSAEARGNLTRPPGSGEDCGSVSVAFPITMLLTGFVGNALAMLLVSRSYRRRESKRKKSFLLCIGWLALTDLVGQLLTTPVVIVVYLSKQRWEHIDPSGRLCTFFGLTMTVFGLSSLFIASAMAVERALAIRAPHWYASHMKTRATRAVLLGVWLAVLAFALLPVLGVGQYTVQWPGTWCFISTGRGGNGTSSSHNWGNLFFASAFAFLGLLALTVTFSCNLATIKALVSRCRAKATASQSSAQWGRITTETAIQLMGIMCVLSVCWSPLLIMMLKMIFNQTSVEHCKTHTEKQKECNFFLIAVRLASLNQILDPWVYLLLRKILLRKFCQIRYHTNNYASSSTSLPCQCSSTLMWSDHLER
Kind of data set: Assay for binding to prostaglandin E2 receptors (3H-PGE2 displacement), EP3. Conditions: read-out: IC50 at EP3 receptor subtype. As to the method: (§1) Membrane Preparation: All operations are performed at 4° C. Transfected cells expressing prostagiandin E2 type 1 receptors (EP1), type 2 (EP2), type 3 (EP3) or type 4 (EP4) receptors are harvested and suspended to 2 million cells per ml in Buffer A [50 mM Tris-HCl (pH 7.4), 10 mM MgCl2, 1 mM EDTA, 1 mM Pefabloc peptide, (Boehringer Mannheim Corp., Indianapolis, Ind.), 10 uM Phosporamidon peptide, (Sigma, St. Louis, Mo.), 1 uM pepstatin A peptide, (Sigma, St. Louis, Mo.), 10 uM elastatinal peptide, (Sigma, St. Louis, Mo.), 100 uM antipain peptide, (Sigma, St. Louis, Mo.)]. The cells are lysed by sonification with a Branson Sonifier (Model #250, Branson Ultrasonics Corporation, Danbury, Conn.) in 2 fifteen second bursts. Unlysed cells and debris are removed by centrifugation at 100×g for 10 min. […] Pelleted membranes are resuspended to 3-10 mg of protein per ml of Buffer A, the protein concentration being determined by the method of Bradford [Bradford, M., Anal. Biochem., 72, 248 (1976)]. […]
(§2) Binding Assay: Frozen membranes prepared as above are thawed and diluted to 0.5 mg/ml (for rat EP2) or 0.3 mg/ml (for rat EP4) in Buffer A above. […] To determine the amount of ^3H-prostaglandin bound to the membranes, the dried filters are placed into plastic bags with scintillation fluid and counted in a LKB 1205 Betaplate reader (Wallac, Gaithersburg, Md.). […]

The target of data set [2] is T2, EP4 receptor (Rattus norvegicus, UniProt P43114).
T2 construct: expressed in transfected cells
T2 sequence (P43114 whole entry): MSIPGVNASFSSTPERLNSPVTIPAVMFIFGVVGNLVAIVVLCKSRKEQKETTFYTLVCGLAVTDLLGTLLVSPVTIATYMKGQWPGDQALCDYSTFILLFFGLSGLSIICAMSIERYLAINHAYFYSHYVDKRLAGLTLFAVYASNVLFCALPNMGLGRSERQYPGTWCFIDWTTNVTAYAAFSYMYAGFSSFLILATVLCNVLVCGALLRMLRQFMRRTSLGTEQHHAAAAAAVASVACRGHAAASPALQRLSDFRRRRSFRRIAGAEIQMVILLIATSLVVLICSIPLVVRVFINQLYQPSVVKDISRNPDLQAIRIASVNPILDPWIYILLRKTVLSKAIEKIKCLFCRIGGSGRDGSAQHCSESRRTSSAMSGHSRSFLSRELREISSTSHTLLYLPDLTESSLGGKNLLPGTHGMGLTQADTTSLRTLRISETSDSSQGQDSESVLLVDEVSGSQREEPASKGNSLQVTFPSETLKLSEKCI
The data set is described as follows: Assay for binding to prostaglandin E2 receptors (3H-PGE2 displacement), EP4. The method, then:
as §1, §2

Data set [3] has as its target T3, EP1 receptor (Homo sapiens, UniProt P34995).
T3 construct: expressed in transfected cells
T3 sequence (P34995 1-402): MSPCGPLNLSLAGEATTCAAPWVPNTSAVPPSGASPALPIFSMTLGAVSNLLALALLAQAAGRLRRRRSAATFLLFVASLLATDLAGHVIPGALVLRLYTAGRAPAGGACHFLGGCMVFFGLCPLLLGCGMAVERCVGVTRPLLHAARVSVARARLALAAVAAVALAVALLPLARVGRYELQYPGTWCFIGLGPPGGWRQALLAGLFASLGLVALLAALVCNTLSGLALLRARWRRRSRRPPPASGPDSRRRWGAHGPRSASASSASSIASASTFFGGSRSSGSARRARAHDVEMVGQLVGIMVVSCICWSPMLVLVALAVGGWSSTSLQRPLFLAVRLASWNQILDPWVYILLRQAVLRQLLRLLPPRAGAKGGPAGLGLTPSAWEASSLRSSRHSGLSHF
The data set is described as follows: Assay for binding to prostaglandin E2 receptors (3H-PGE2 displacement), EP1. Conditions: read-out: IC50 at EP1 receptor subtype. As to the method:
as §1, §2

In data set [4] the target is T4, EP2 receptor (Rattus norvegicus, UniProt Q62928).
T4 construct: expressed in transfected cells
T4 sequence (Q62928 whole entry): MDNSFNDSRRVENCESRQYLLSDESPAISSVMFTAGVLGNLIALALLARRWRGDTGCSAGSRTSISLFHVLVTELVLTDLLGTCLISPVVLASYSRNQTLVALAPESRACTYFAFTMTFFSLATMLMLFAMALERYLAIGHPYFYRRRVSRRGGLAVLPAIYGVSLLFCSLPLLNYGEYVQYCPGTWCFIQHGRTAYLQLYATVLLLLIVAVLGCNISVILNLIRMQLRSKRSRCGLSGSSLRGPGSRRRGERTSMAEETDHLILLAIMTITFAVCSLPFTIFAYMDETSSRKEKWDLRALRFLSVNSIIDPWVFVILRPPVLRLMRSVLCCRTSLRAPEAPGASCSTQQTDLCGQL
Kind of data set: Assay for binding to prostaglandin E2 receptors (3H-PGE2 displacement), EP2. Conditions: read-out: IC50 at EP2 receptor subtype. As to the method:
as §1, §2

Data set [5] relates to OVX rat model. The data set is described as follows: Bone mass restoration in OVX rat model (femoral DEXA). In kind it is in vivo. Conditions: subcutaneous 30 mg/kg/day for 28 days. The method, then: The purpose of this study is to determine whether an EP4 receptor selective agonist, and specifically 7-(2-(3-hydroxy-4-phenyl-butyl)-5-oxo-pyrrolidin-1-yl)-heptanoic acid, can restore bone mass in OVX rat model.
Sprague-Dawley […] rats were ovariectomized (OVX) at 3.5 months of age. Ten months after OVX, the rats were treated by subcutaneous injection with vehicle or 7-(2-(3-hydroxy-4-phenyl-butyl)-5-oxo-pyrrolidin-1-yl)-heptanoic acid at 30 mg/kg/day for 28 days. The rats were autopsied. The right femur from each rat was removed at autopsy and scanned using dual energy x-ray absorptiometry (DEXA, QDR 1000/W, Hologic Inc., Waltham, Mass.) equipped with “Regional High Resolution Scan” software (Hologic Inc., Waltham, Mass.). The scan field size was 5.08×1.902 cm, resolution is 0.0254×0.0127 cm and the scan speed was 7.25 mm/second. The femoral scan images were analyzed. Bone mineral content (BMC) and bone mineral density (BMD) of whole femora (WF), distal femoral metaphysis (DFM), and femoral shaft (FS) were determined according to the method described in H. Z. Ke et al., Droloxifene, a New Estrogen Antagonist/Agonist, Prevents Bone Loss in Ovariectomized Rats. ENDOCRINOLOGY 136;2435-2441, 1995.

Where [6] appears, read: OVX rats, compared with OVX rats treated with vehicle.

For orientation: IC50 means the concentration that gives 50% inhibition. For `O=C(O)CCCCCCN1C(=O)CCC1CCC(O)Cc1ccccc1` (stereo not drawn) [7-(2-(3-hydroxy-4-phenyl-butyl)-5-oxo-pyrrolidin-1-yl)-heptanoic acid], the IC50 in data set [1] was greater than 3.2 µM. In data set [2], this compound registered an IC50 of 0.016 µM. The IC50 in data set [3] is greater than 3.2 µM. Also, the IC50 in data set [4] was greater than 3.2 µM. Also, the PGE2-like side effects entry in data set [5] (OVX rats) is “No PGE2-like side effects were seen”. In data set [5] (setting [6]), the “distal femoral BMC increased” value was determined as 8%, the “distal femoral BMD increased” value was 8%, the “femoral shaft BMC increased” value was determined as 20% and the “femoral shaft BMD increased” value is listed as 18%. Besides, in data set [5] (setting [6]), the “total femoral BMC increased” value amounted to 17% and the “total femoral BMD increased” value came to 13%. In addition, the “bone formation and bone restoration in established osteopenic OVX rats” value in data set [5] was “stimulates bone formation and restores bone”.
